Among the data in patent US11013720B2, “Ganetespib-containing particle, pharmaceutical composition comprising the same, and their use in anticancer treatment” (NATIONAL CHIAO TUNG UNIVERSITY, priority 2019, dated 2021) are viability and IC50 values, retold here.

The structures appear in SMILES notation. Values after ≈ are worked out from the molar mass of the structure shown.

The test system of one test is H1299 cell line. The experiment in a line: In vitro anticancer effect against H1299 cell line (MTT assay). The format is cell-based. The following applies: Homo sapiens, NCI-H1299. How it is done: (§1) The A549 cells described in section 1 of Experimental Materials were placed in a 24-well culture plate at 1×10^4 cells/well, followed by cultivation in DMEM supplemented with 10% FBS at 37° C. and 5% CO2. The A549 cells in the wells were respectively treated with the free ganetespib test solutions and the CHC-ganetespib test solutions. Specifically, 200 μL of a respective test solution was added into a corresponding well containing the A549 cells. The A549 cells which were not treated with the free ganetespib test solutions and the CHC-ganetespib test solutions served as a normal control. After the treatment, cultivation was conducted for 48 hours at 37° C. and 5% CO2.
(§2) The respective resulting culture was subjected to washing twice with PBS after removal of the liquid in the well, and was subjected to determination of cell viability by virtue of the 3-(4,5-dimethylthiazol-2-yl)-2,5-diphenyltetrazoli-umbromide (MTT) assay. Specifically, a suitable amount of a MTT solution (having a MTT concentration of 1.9 mg/mL) was added to the respective culture, followed by incubation for 4 hours. The liquid in the well was removed, and dimethylsulfoxide (DMSO) was added into the well to dissolve formazan dye. Absorbance of the mixture in the well at 450 nm (0D450) was measured using a microplate reader (Tecan Sunrise, Switzerland). The cell viability (%) was calculated by substituting the absorbance into the following equation (2): D=(E/F)×100 (2) • D=cell viability (%) • E=OD450 of respective culture • F=OD450 of normal control
(§3) IC50 (half maximal inhibitory concentration) of the free ganetespib and the CHC-ganetespib particle agasint A549 cell line was determined based on the free ganetespib concentrations and the CHC-ganetespib particle concentrations, respectively, as well as the cell viability resulting from such concentrations.
The in vitro anticancer effect of the free ganetespib and the CHC-ganetespib particle agasint H1299 cell line was determined generally according to the method described in section B of this example, except that the H1299 cells described in section 1 of Experimental Materials were placed in a 24-well culture plate at 5×10^4 cells/well, followed by cultivation in RPMI medium supplemented with 10% FBS.
On the technique in general: Formazan colour is commonly taken as a measure of viable cells.

For the next test, the system named is A549 cell line. Description: In vitro anticancer effect against A549 cell line (MTT assay). The format is cell-based. The settings on record: Homo sapiens. The protocol: as §1, §2, §3

Take `CC(C)c1cc(-c2nnc(O)n2-c2ccc3c(ccn3C)c2)c(O)cc1O` [Free ganetespib, 4-[5-hydroxy-4-(1-methyl-1H-indol-5-yl)-4H-1,2,4-triazol-3-yl]-6-(propan-2-yl)benzene-1,3-diol]: the viability at 0.0015625 µg/mL is 93% in the test on H1299 cell line (H1299, 1.5625 ng/mL, 48 hours) and 98% in the test on A549 cell line (A549, 1.5625 ng/mL, 48 hours). The viability at 0.003125 µg/mL in the test on H1299 cell line (H1299, 3.125 ng/mL, 48 hours) stood at 85%; in the test with A549 cell line (A549, 3.125 ng/mL, 48 hours), 70%. In addition, the viability at 0.00625 µg/mL was found to be 55% with H1299 cell line (H1299, 6.25 ng/mL, 48 hours) and 52% in the test with A549 cell line (A549, 6.25 ng/mL, 48 hours). Further, the viability at 0.01 µg/mL in the test on H1299 cell line (H1299, 10 ng/mL, 48 hours) was determined as 48%. This molecule had a viability at 0.02 µg/mL in the test on H1299 cell line (H1299, 20 ng/mL, 48 hours) of 23%. For the same molecule, the IC50 with H1299 cell line (H1299, 48 hours, MTT) was 10.3 ng/mL (≈ 0.0283 µM); in the test on A549 cell line (A549, 48 hours, MTT) it was 8.8 ng/mL (≈ 0.0241 µM). This molecule also returned a viability at 0.0125 µg/mL in the test with A549 cell line (A549, 12.5 ng/mL, 48 hours) of 40%. This molecule registered a viability at 0.025 µg/mL in the test on A549 cell line (A549, 25 ng/mL, 48 hours) of 30%.

For orientation: viability means a per cent measure of how many cells are alive, often set against a control. For orientation: IC50 means the concentration needed to halve the response being measured.
